Reference: PubChem BioAssay AID1549 (Sanford-Burnham Center for Chemical Genomics, 2009)
Activity calls are given as the source filed them. No rule for the calls is given here.

Target: Influenza A virus M2 proton channel (A/TW/4845/1999 H1N1)
Test: M2 proton channel binding, NMR based, influenza A virus H1N1 strain (AID 1549)
Settings: NMR binding screen, M2 protein

Structure (SMILES)	Kd
COC(=O)CSc1ncnc2c(C)csc12	> 4 mM (inactive)
OCCNc1nc2ccc(Cl)cc2[nH]1	> 4 mM (inactive)
OCc1csc(-c2cccs2)n1	> 4 mM (inactive)
CCOc1ccc(C(=O)c2ccc(OC)c(O)c2O)cc1	> 4 mM (inactive)
O=C(CN1CCOCC1)Nc1cccc(Br)c1	> 4 mM (inactive)
O=C1NC(=O)/C(=C/c2ccc(O)cc2)N1	> 4 mM (inactive)
O=c1cc(O)n(-c2ccc(F)cc2)c(=S)[nH]1	> 4 mM (inactive)
COc1ccc(-c2oc3cc(O[C@H]4O[C@H](CO)[C@@H](O)[C@H](O)[C@H]4O)c(OC)c(O)c3c(=O)c2OC)cc1O	> 4 mM (inactive)
CCCCCC/C=C\CCCCCCCc1cccc(O)c1C(=O)O	> 4 mM (inactive)
Cc1c(N=Cc2ccc[nH]2)c(=O)n(-c2ccccc2)n1C	> 4 mM (inactive)
N#Cc1cccc(Cn2nnc(-c3ccccc3)n2)c1	> 4 mM (inactive)
COc1c2ccccc2nc2occc12	> 4 mM (inactive)
CCn1c(C)c(C(C)=O)c(N2CCOCC2)nc1=S	> 4 mM (inactive)
Cc1ccc(SCc2cc(=O)n3[nH]c(C)nc3n2)cc1	> 4 mM (inactive)
Cc1nnc(SCC(=O)NCc2ccccc2)[nH]c1=O	> 4 mM (inactive)
Cc1nc(NC(=O)c2cccnc2)ccc1Br	> 4 mM (inactive)
CN(C)C(=O)CSc1nc2ccccc2c(=O)[nH]1	> 4 mM (inactive)
CCn1c(C)c(C(C)=O)c(N2CCN(C)CC2)nc1=S	> 4 mM (inactive)
CCC(=O)n1nc(-c2ccco2)nc1N	> 4 mM (inactive)
Cc1cc2ncc(C(=O)Nc3ccccc3)c(C)n2n1	> 4 mM (inactive)
CC(C)=CC(=O)Nc1ccc(S(N)(=O)=O)cc1	> 4 mM (inactive)
COc1ccc(-c2cc(=O)c3c(OC)c(OC)c(OC)c(OC)c3o2)cc1OC	> 4 mM (inactive)
OCc1ccc2c(c1)CCO2	> 4 mM (inactive)
CC(=O)c1c(C)nc(-c2ccc(Cl)cc2Cl)n1O	> 4 mM (inactive)

Structure (SMILES)	Kd
N[C@@H](Cc1cc(I)c(Oc2cc(I)c(O)c(I)c2)c(I)c1)C(=O)O	> 4 mM (inactive)
O=c1cccc2n1CC1CC2CN2CCCC[C@@H]12 (some centres not stated)	> 4 mM (inactive)
O=C(Nc1ccc2ccccc2c1)c1cnccn1	> 4 mM (inactive)
Cc1cc(C)c2nncn2n1	> 4 mM (inactive)
Cc1occc1C(=O)Nc1nccs1	> 4 mM (inactive)
CC(C)Nc1ncnc2c1nnn2C	> 4 mM (inactive)
CCn1c(-c2c[nH]c3ccccc23)n[nH]c1=S	> 4 mM (inactive)
CCOC(=O)CSc1nnc(C)c(=O)[nH]1	> 4 mM (inactive)
C/C(=C\CO)CC[C@H](C)CCC[C@H](C)CCCC(C)C	> 4 mM (inactive)
CC(=O)Nc1cc(S(=O)(=O)N(C)C)ccc1Cl	> 4 mM (inactive)
COCc1cc(=O)oc2cc(N)ccc12	> 4 mM (inactive)
Cc1n[nH]c(=S)n(/N=C/c2cccs2)c1=O	> 4 mM (inactive)
NC(=O)c1ccc(Cl)c(N2C(=O)CCC2=O)c1	> 4 mM (inactive)
Cn1c(=O)c2ccccc2n(Cc2ccccc2F)c1=O	> 4 mM (inactive)
CC1(C)N([O-])c2cc([N+](=O)[O-])ccc2[N+]1=O	> 4 mM (inactive)
N#Cc1cc2ccccc2nc1N	> 4 mM (inactive)
O=C1CCC(c2cccs2)=NN1	> 4 mM (inactive)
CC(C)=CCCC1(C)C=Cc2c(O)c3c(c(CC=C(C)C)c2O1)OC12C(=CC4CC1C(C)(C)OC2(C/C=C(/C)C(=O)O)C4O)C3=O (configuration not stated)	> 4 mM (inactive)
COc1ccccc1/C=C/CN1CCOCC1	> 4 mM (inactive)
CC(=O)OC1CCC2(C)C(=CC=C3C2CCC2(C)C3CCC2C(C)/C=C/C(C)C(C)C)C1(C)C (configuration not stated)	> 4 mM (inactive)
CCc1ccccc1NC(=O)c1ccoc1C	> 4 mM (inactive)
CN1C(=O)CC(=O)N(C)c2ccccc21	> 4 mM (inactive)
Cc1cc(Oc2ccccc2)nc(N)n1	> 4 mM (inactive)
